Results published in patent US20260198493A1, “HYDRAZIDE COMPOUND AND AGRICULTURAL/HORTICULTURAL FUNGICIDE” (Nippon Soda Co., Ltd., priority 2022, published 2026).

Experiments:
Botrytis cinerea [1] = assay: Control test of cucumber gray mold (sprayed young cucumber seedlings); type: in vivo; settings: 96 h, four days after inoculation; for pest or weed control at 25 ppm: 25 ppm by mass spray; for pest or weed control at 125 ppm: 125 ppm by mass spray
Method: Then, the drug liquid was sprayed onto young cucumber seedlings cultivated in a nursery pot (variety “Jihai”-based, cotyledon stage), and then air-dried. […] They were left still in a moist room at 20° C. Four days after inoculation, leaves of the young cucumber seedlings were visually observed, and the control value was calculated from the lesion area ratio in accordance with the following equation. [formula]

Venturia inaequalis = assay: Control test of apple scab disease (sprayed young apple seedlings); type: in vivo; settings: 125 ppm by mass spray, 12 to 14 days after inoculation
Colletotrichum acutatum = assay: Fungicidal effect test against fungi causing apple anthracnose; settings: 96 h, read-out: growth inhibition ratio
[2] = tested on: Erysiphe graminis f.sp.tritici; assay: Control test of wheat powdery mildew disease (sprayed young wheat seedlings); type: in vivo; settings: Blumeria graminis, 144 h, 125 ppm by mass spray, six days after inoculation
Glomerella cingulata = assay: Fungicidal effect test against fungi causing grape ripe rot disease; settings: Colletotrichum gloeosporioides, 72 h, read-out: growth inhibition ratio
Botrytis cinerea [3] = type: cell-based; settings: 120 h, 25 ppm by volume, Vogel medium, 20° C., five days, dark, read-out: growth inhibition ratio
Fusarium graminearum = assay: microbe, parasite or virus in culture; type: cell-based; settings: 96 h, read-out: growth inhibition ratio

COC(=O)N(Cc1ccc(Br)cc1C)NC(=O)c1cc(C)ncc1Oc1cccc(C2CC2)c1F [b-76]
≥ 75%: pest or weed control at 25 ppm (Botrytis cinerea [1]) | pest or weed control at 125 ppm (Botrytis cinerea [1]) | pest or weed control at 125 ppm (Venturia inaequalis) | inhibition of growth at 25 ppm (Colletotrichum acutatum) | pest or weed control at 125 ppm [2] | inhibition of growth at 25 ppm (Glomerella cingulata) | inhibition of growth at 25 ppm (Botrytis cinerea [3]) | inhibition of growth at 25 ppm (Fusarium graminearum)

COC(=O)N(Cc1ccc(Cl)cc1C)NC(=O)c1cc(C)ncc1Oc1cccc(C2CC2)c1F [b-77]
≥ 75%: pest or weed control at 25 ppm (Botrytis cinerea [1]) | pest or weed control at 125 ppm (Botrytis cinerea [1]) | pest or weed control at 125 ppm (Venturia inaequalis) | inhibition of growth at 25 ppm (Colletotrichum acutatum) | pest or weed control at 125 ppm [2] | inhibition of growth at 25 ppm (Glomerella cingulata) | inhibition of growth at 25 ppm (Botrytis cinerea [3]) | inhibition of growth at 25 ppm (Fusarium graminearum)

COC(=O)N(Cc1ccc(C)cc1C)NC(=O)c1cc(C)nnc1Oc1cccc(C2CC2)c1 [b-80]
≥ 75%: pest or weed control at 25 ppm (Botrytis cinerea [1]) | pest or weed control at 125 ppm (Botrytis cinerea [1]) | pest or weed control at 125 ppm (Venturia inaequalis) | inhibition of growth at 25 ppm (Colletotrichum acutatum) | pest or weed control at 125 ppm [2] | inhibition of growth at 25 ppm (Glomerella cingulata) | inhibition of growth at 25 ppm (Botrytis cinerea [3]) | inhibition of growth at 25 ppm (Fusarium graminearum)

COC(=O)N(Cc1ccc(C)cc1C)NC(=O)c1cc(C)ncc1Oc1cccc(Br)c1F [b-88]
≥ 75%: pest or weed control at 25 ppm (Botrytis cinerea [1]) | pest or weed control at 125 ppm (Botrytis cinerea [1]) | pest or weed control at 125 ppm (Venturia inaequalis) | inhibition of growth at 25 ppm (Colletotrichum acutatum) | pest or weed control at 125 ppm [2] | inhibition of growth at 25 ppm (Glomerella cingulata) | inhibition of growth at 25 ppm (Botrytis cinerea [3]) | inhibition of growth at 25 ppm (Fusarium graminearum)

COC(=O)N(Cc1ccc(C)cc1C)NC(=O)c1c(Oc2cccc(C3CC3)c2F)nnc2ccccc12 [b-90, Methyl 2-(3-(3-cyclopropyl-2-fluorophenoxy)cinnoline-4-carbonyl)-1-(2,4-dimethylbenzyl)hydrazine-1-carboxylate]
≥ 75%: pest or weed control at 25 ppm (Botrytis cinerea [1]) | pest or weed control at 125 ppm (Botrytis cinerea [1]) | pest or weed control at 125 ppm (Venturia inaequalis) | inhibition of growth at 25 ppm (Colletotrichum acutatum) | pest or weed control at 125 ppm [2] | inhibition of growth at 25 ppm (Glomerella cingulata) | inhibition of growth at 25 ppm (Botrytis cinerea [3]) | inhibition of growth at 25 ppm (Fusarium graminearum)

COC(=O)N(Cc1ccc(C)cc1C)NC(=O)c1cc(OC)ncc1Oc1cccc(C2CC2)c1F [b-94]
≥ 75%: pest or weed control at 25 ppm (Botrytis cinerea [1]) | pest or weed control at 125 ppm (Botrytis cinerea [1]) | pest or weed control at 125 ppm (Venturia inaequalis) | inhibition of growth at 25 ppm (Colletotrichum acutatum) | pest or weed control at 125 ppm [2] | inhibition of growth at 25 ppm (Glomerella cingulata) | inhibition of growth at 25 ppm (Botrytis cinerea [3]) | inhibition of growth at 25 ppm (Fusarium graminearum)

COC(=O)N(Cc1ccc(OC)cc1C)NC(=O)c1c(Oc2cccc(C3CC3)c2F)nnc(Cl)c1C [b-106]
≥ 75%: pest or weed control at 25 ppm (Botrytis cinerea [1]) | pest or weed control at 125 ppm (Botrytis cinerea [1]) | pest or weed control at 125 ppm (Venturia inaequalis) | inhibition of growth at 25 ppm (Colletotrichum acutatum) | pest or weed control at 125 ppm [2] | inhibition of growth at 25 ppm (Glomerella cingulata) | inhibition of growth at 25 ppm (Botrytis cinerea [3]) | inhibition of growth at 25 ppm (Fusarium graminearum)

COC(=O)N(Cc1ccc(OC)cc1C)NC(=O)c1cc(C)ncc1Oc1cccc(Br)c1 [b-107]
≥ 75%: pest or weed control at 125 ppm (Botrytis cinerea [1]) | pest or weed control at 125 ppm (Venturia inaequalis) | inhibition of growth at 25 ppm (Colletotrichum acutatum) | pest or weed control at 125 ppm [2] | inhibition of growth at 25 ppm (Glomerella cingulata) | inhibition of growth at 25 ppm (Botrytis cinerea [3]) | inhibition of growth at 25 ppm (Fusarium graminearum)

COC(=O)N(Cc1ccc(OC)cc1C)NC(=O)c1cc(C)ncc1Oc1cccc(Br)c1F [b-108]
≥ 75%: pest or weed control at 25 ppm (Botrytis cinerea [1]) | pest or weed control at 125 ppm (Botrytis cinerea [1]) | pest or weed control at 125 ppm (Venturia inaequalis) | inhibition of growth at 25 ppm (Colletotrichum acutatum) | pest or weed control at 125 ppm [2] | inhibition of growth at 25 ppm (Glomerella cingulata) | inhibition of growth at 25 ppm (Botrytis cinerea [3]) | inhibition of growth at 25 ppm (Fusarium graminearum)

COC(=O)N(Cc1ccc(C)cc1C)NC(=O)c1cc(Br)ncc1Oc1cccc(Br)c1F [b-111]
≥ 75%: pest or weed control at 125 ppm (Botrytis cinerea [1]) | pest or weed control at 125 ppm (Venturia inaequalis) | inhibition of growth at 25 ppm (Colletotrichum acutatum) | pest or weed control at 125 ppm [2] | inhibition of growth at 25 ppm (Glomerella cingulata) | inhibition of growth at 25 ppm (Botrytis cinerea [3]) | inhibition of growth at 25 ppm (Fusarium graminearum)

COC(=O)N(Cc1ccc(C)cc1C)NC(=O)c1cc(C)nnc1Oc1cccc(F)c1 [b-112]
≥ 75%: pest or weed control at 125 ppm (Botrytis cinerea [1]) | pest or weed control at 125 ppm (Venturia inaequalis) | inhibition of growth at 25 ppm (Colletotrichum acutatum) | pest or weed control at 125 ppm [2] | inhibition of growth at 25 ppm (Glomerella cingulata) | inhibition of growth at 25 ppm (Botrytis cinerea [3]) | inhibition of growth at 25 ppm (Fusarium graminearum)

COC(=O)N(Cc1ccc(C)cc1C)NC(=O)c1cc(C)nnc1Oc1cccc(Cl)c1 [b-113]
≥ 75%: pest or weed control at 25 ppm (Botrytis cinerea [1]) | pest or weed control at 125 ppm (Botrytis cinerea [1]) | pest or weed control at 125 ppm (Venturia inaequalis) | inhibition of growth at 25 ppm (Colletotrichum acutatum) | pest or weed control at 125 ppm [2] | inhibition of growth at 25 ppm (Glomerella cingulata) | inhibition of growth at 25 ppm (Botrytis cinerea [3]) | inhibition of growth at 25 ppm (Fusarium graminearum)

Cc1cccc(Oc2nnc(C)cc2C(=O)NN(Cc2ccc(C)cc2C)C(=O)O)c1 [b-117]
≥ 75%: pest or weed control at 25 ppm (Botrytis cinerea [1]) | pest or weed control at 125 ppm (Botrytis cinerea [1]) | pest or weed control at 125 ppm (Venturia inaequalis) | inhibition of growth at 25 ppm (Colletotrichum acutatum) | pest or weed control at 125 ppm [2] | inhibition of growth at 25 ppm (Glomerella cingulata) | inhibition of growth at 25 ppm (Botrytis cinerea [3]) | inhibition of growth at 25 ppm (Fusarium graminearum)

COC(=O)N(Cc1ccc(C)cc1C)NC(=O)c1c(Br)cncc1Oc1cccc(C2CC2)c1 [b-118]
≥ 75%: pest or weed control at 25 ppm (Botrytis cinerea [1]) | pest or weed control at 125 ppm (Botrytis cinerea [1]) | pest or weed control at 125 ppm (Venturia inaequalis) | inhibition of growth at 25 ppm (Colletotrichum acutatum) | pest or weed control at 125 ppm [2] | inhibition of growth at 25 ppm (Glomerella cingulata) | inhibition of growth at 25 ppm (Botrytis cinerea [3]) | inhibition of growth at 25 ppm (Fusarium graminearum)

COC(=O)N(Cc1ccc(C)cc1C)NC(=O)c1cc(C)nnc1Oc1csc(C(F)(F)F)c1 [b-124, Methyl 1-(2,4-dimethylbenzyl)-2-(6-methyl-3-((5-(trifluoromethyl)thiophen-3-yl)oxy)pyridazine-4-carbonyl)hydrazine-1-carboxylate]
≥ 75%: pest or weed control at 125 ppm (Botrytis cinerea [1]) | pest or weed control at 125 ppm (Venturia inaequalis) | inhibition of growth at 25 ppm (Colletotrichum acutatum) | pest or weed control at 125 ppm [2] | inhibition of growth at 25 ppm (Glomerella cingulata) | inhibition of growth at 25 ppm (Botrytis cinerea [3]) | inhibition of growth at 25 ppm (Fusarium graminearum)

COC(=O)N(Cc1ccc2c(c1)CCC2)NC(=O)c1cc(C)ncc1Oc1cccc(C2CC2)c1F [b-127]
≥ 75%: pest or weed control at 25 ppm (Botrytis cinerea [1]) | pest or weed control at 125 ppm (Botrytis cinerea [1]) | pest or weed control at 125 ppm (Venturia inaequalis) | inhibition of growth at 25 ppm (Colletotrichum acutatum) | pest or weed control at 125 ppm [2] | inhibition of growth at 25 ppm (Glomerella cingulata) | inhibition of growth at 25 ppm (Botrytis cinerea [3]) | inhibition of growth at 25 ppm (Fusarium graminearum)

COC(=O)N(Cc1ccc(C)cc1C)NC(=O)c1ccncc1Oc1cccc(Br)c1 [b-145]
≥ 75%: pest or weed control at 25 ppm (Botrytis cinerea [1]) | pest or weed control at 125 ppm (Botrytis cinerea [1]) | pest or weed control at 125 ppm (Venturia inaequalis) | inhibition of growth at 25 ppm (Colletotrichum acutatum) | pest or weed control at 125 ppm [2] | inhibition of growth at 25 ppm (Glomerella cingulata) | inhibition of growth at 25 ppm (Botrytis cinerea [3]) | inhibition of growth at 25 ppm (Fusarium graminearum)

COC(=O)N(Cc1ccc(OC)cc1C)NC(=O)c1ccncc1Oc1cccc(Br)c1 [b-146]
≥ 75%: pest or weed control at 125 ppm (Botrytis cinerea [1]) | pest or weed control at 125 ppm (Venturia inaequalis) | inhibition of growth at 25 ppm (Colletotrichum acutatum) | pest or weed control at 125 ppm [2] | inhibition of growth at 25 ppm (Glomerella cingulata) | inhibition of growth at 25 ppm (Botrytis cinerea [3]) | inhibition of growth at 25 ppm (Fusarium graminearum)

COC(=O)N(Cc1ccc(C)cc1C)NC(=O)c1ccncc1Oc1cccc(Br)c1F [b-147]
≥ 75%: pest or weed control at 25 ppm (Botrytis cinerea [1]) | pest or weed control at 125 ppm (Botrytis cinerea [1]) | pest or weed control at 125 ppm (Venturia inaequalis) | inhibition of growth at 25 ppm (Colletotrichum acutatum) | pest or weed control at 125 ppm [2] | inhibition of growth at 25 ppm (Glomerella cingulata) | inhibition of growth at 25 ppm (Botrytis cinerea [3]) | inhibition of growth at 25 ppm (Fusarium graminearum)
